In patent US20220298135A1, “5-HETEROARYL-PYRIDIN-2-AMINE COMPOUNDS AS NEUROPEPTIDE FF RECEPTOR ANTAGONISTS” (Domain Therapeutics, priority 2019, published 2022):

Experiments:
[1] = target: T1, human NPFFR1 (hNPFFR1) receptor (Homo sapiens, UniProt Q9GZQ6); experiment: Human NPFFR1 evaluation using BRET biosensors (antagonist IC50); type: cell-based; details: hNPFFR1 transiently over-expressed in HEK-293 T cells; BRET signal; stimulation by EC80 RFRP-3
T1 construct: expressed in transfected cells; host or cells: HEK-293 T cells, transient co-transfection with polyethylenimine
T1 sequence (Q9GZQ6 whole entry): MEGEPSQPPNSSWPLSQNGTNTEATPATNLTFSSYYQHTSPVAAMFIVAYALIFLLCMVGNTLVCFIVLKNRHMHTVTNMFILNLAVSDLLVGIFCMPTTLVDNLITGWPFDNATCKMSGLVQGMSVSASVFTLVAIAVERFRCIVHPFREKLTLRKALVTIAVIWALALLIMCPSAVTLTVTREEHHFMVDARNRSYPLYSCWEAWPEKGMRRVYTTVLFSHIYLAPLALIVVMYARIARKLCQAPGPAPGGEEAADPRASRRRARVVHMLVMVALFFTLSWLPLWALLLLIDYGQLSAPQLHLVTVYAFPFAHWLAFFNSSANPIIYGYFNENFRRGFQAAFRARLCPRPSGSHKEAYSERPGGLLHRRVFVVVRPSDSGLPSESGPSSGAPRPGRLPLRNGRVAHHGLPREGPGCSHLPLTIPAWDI
In short: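 HEK-293T cells co-transfected with receptor, GαoB and Gi-effector BRET biosensor pair, assayed 48 h later. Compound 10 min, then EC80 RFRP-3 with 10 min luminescence read; IC50 from 20-concentration variable-slope fit, duplicate, two independent experiments.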

Structure (SMILES) | IC50 [1] [nM] | melting point [°C]
Cl.Nc1ccc(-c2cccc3cccnc23)c(F)n1 [Example 2, 6-Fluoro-5-quinolin-8-yl-pyridin-2-ylamine] | > 1000 | > 250
CCc1nc(N)ccc1-c1ccc(F)cc1-c1ccc(N2CCOCC2)nc1.Cl [Example 82, 6-ethyl-5-(4-fluoro-2-(6-morpholinopyridin-3-yl)phenyl)pyridin-2-amine] | 100 to 1000 | 54 to 70
CCc1nc(N)ccc1-c1c(F)ccc2ccc(=O)[nH]c12.Cl [Example 158, 8-(6-amino-2-ethylpyridin-3-yl)-7-fluoroquinolin-2(1H)-one] | 100 to 1000 | 172 to 208
CCc1nc(N)ccc1-c1c(C(N)=O)ccc2cccnc12.Cl [Example 152, 8-(6-amino-2-ethylpyridin-3-yl)quinoline-7-carboxamide] | > 1000 | 150 to 164
Cl.Nc1ccc(-c2cc(F)cc3cccnc23)c(N)n1 [Example 52, 3-(6-fluoroquinolin-8-yl)pyridine-2,6-diamine] | < 100 | > 250
CCc1nc(N)ccc1-c1c(F)ccc2c1OCCCC2.Cl [Example 179, 6-ethyl-5-(8-fluoro-2,3,4,5-tetrahydrobenzo[b]oxepin-9-yl)pyridin-2-amine] | < 100 | 47 to 65
Nc1ccc(-c2csc3ccc(F)cc23)c(N)n1 [Example 22, 3-(5-Fluoro-benzo[b]thiophen-3-yl)pyridine-2,6-diamine] | 100 to 1000 | 116 to 118
Cc1nc(N)ccc1-c1cccc2cccnc12.Cl [Example 3, 6-Methyl-5-quinolin-8-yl-pyridin-2-ylamine] | 100 to 1000 | > 250

Second part, the molecule after the results:

IC50 [1] [nM] | melting point [°C] | Structure (SMILES)
< 100 | 70 to 130 | Cl.Nc1ccc(-c2c(F)ccc3cccnc23)c(CCCC(F)(F)F)n1 [Example 71, 5-(7-fluoroquinolin-8-yl)-6-(4,4,4-trifluorobutyl)pyridin-2-amine]
< 100 | 190 to 220 | Cl.Nc1ccc(-c2c(F)ccc3cccnc23)c(N)n1 [Example 57, 3-(7-fluoroquinolin-8-yl)pyridine-2,6-diamine]
< 100 | 114 to 116 | Cl.Nc1ccc(-c2cccc3cc(F)cnc23)c(N)n1 [Example 58, 3-(3-fluoroquinolin-8-yl)pyridine-2,6-diamine]
< 100 | 137 to 142 | CCc1nc(N)ccc1-c1cccc2ccc(C3CCCCC3)nc12.Cl [Example 118, 5-(2-cyclohexylquinolin-8-yl)-6-ethylpyridin-2-amine]
< 100 | 50 to 56 | CCc1nc(N)ccc1-c1cc(F)cc2cccnc12.Cl [Example 74, 6-ethyl-5-(6-fluoroquinolin-8-yl)pyridin-2-amine]
< 100 | 180 to 188 | CCc1nc(N)ccc1-c1cccc2ccc(-c3cnccc3C)nc12.Cl [Example 127, 6-ethyl-5-(2-(4-methylpyridin-3-yl)quinolin-8-yl)pyridin-2-amine]
< 100 | 120 to 160 | CCc1nc(N)ccc1-c1c(OC(F)F)ccc2cccnc12.Cl [Example 105, 5-(7-(difluoromethoxy)quinolin-8-yl)-6-ethylpyridin-2-amine]
< 100 | 80 to 120 | CCCc1nc(N)ccc1-c1cccc2cccnc12.Cl [Example 8, 6-Propyl-5-(8-quinolyl)pyridin-2-amine]
< 100 | > 250 | Cl.Nc1ccc(-c2c(F)cc(F)c3cc(F)cnc23)c(N)n1 [Example 61, 3-(3,5,7-trifluoroquinolin-8-yl)pyridine-2,6-diamine]
< 100 | 120 to 140 | CCc1nc(N)ccc1-c1ccc(F)c2cccnc12.Cl [Example 1, 6-ethyl-5-(5-fluoroquinolin-8-yl)pyridin-2-amine]
